Among the test systems are HOP-92; NCI/ADR-RES; M14; NCI-H460; SR; CCRF-CEM; T47D; CAKI-1; RPMI-8226; ACHN; A498; TK-10; MDA-MB-231; RXF 393; HCC 2998; DMS-114; DMS-273; DLD-1; M19-MEL; HOP-18.
Test in all cases: NCI tumour cell line growth inhibition, 48 h

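Values below derive from 48-hour exposures of cells grown in 96-well plates, with endpoints linearly interpolated between the two concentrations bracketing the appropriate inhibition level. GI50 = concentration required for 50% inhibition of growth.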 Activity calls are given as the source filed them. No stated cut-off is given here; in the data, active = GI50 up to about 1.1 µM and inactive = higher.

On to `CN(CCO)Cc1ncccc1O`, for which the GI50 with HOP-92 is > 100 µM (inactive); with NCI/ADR-RES, > 100 µM (inactive); in the assay on M14 it was > 100 µM (inactive); in the assay with NCI-H460, > 100 µM (inactive); in the assay on SR, > 100 µM (inactive); in the assay on CCRF-CEM, 68.5 µM (inactive). Besides, the GI50 in the assay on T47D, in the assay with CAKI-1, in the assay with RPMI-8226, in the assay with ACHN, in the assay with A498 and in the assay on TK-10 was > 100 µM (inactive) each time. Moreover, the GI50 in the assay on MDA-MB-231 and in the assay with RXF 393 was > 100 µM (inactive) in each case.

On to `CON(C)C(C#N)=C(C#N)C#N`, for which the GI50 in the assay with NCI/ADR-RES, in the assay with M14, in the assay with NCI-H460, in the assay with SR, with HCC 2998 and in the assay on CCRF-CEM was > 10 µM (inactive) in each case. Also, the GI50 in the assay on T47D, with CAKI-1, in the assay on RPMI-8226, in the assay on ACHN, in the assay with A498 and with TK-10 was > 10 µM (inactive) each time. The GI50 in the assay on MDA-MB-231 and in the assay with RXF 393 was > 10 µM (inactive) each time.

For `O=C1c2ccccc2N(O)C1(c1ccccc1)C1CCCC=C1N1CCOCC1` (centres undefined), the GI50 in the assay on M14 was > 100 µM (inactive); in the assay on NCI-H460, > 100 µM (inactive); in the assay on SR it was 28.4 µM (inactive); in the assay with HCC 2998, > 100 µM (inactive); in the assay on DMS-114, 50.1 µM (inactive); in the assay on DMS-273, > 100 µM (inactive). In addition, the GI50 in the assay with CCRF-CEM was 40.7 µM (inactive); in the assay on CAKI-1, > 100 µM (inactive); with RPMI-8226, 17.1 µM (inactive); in the assay on ACHN, > 100 µM (inactive); with DLD-1, > 100 µM (inactive); in the assay with TK-10, > 100 µM (inactive). Besides, the results for the GI50 in the assay on RXF 393 and in the assay with M19-MEL were 22.4 µM (inactive) and > 100 µM (inactive), respectively.

For `C=CCCN1CCc2c([nH]c3ccccc23)C1C(=O)O` (centres undefined), the GI50 was > 100 µM (inactive) in the assay on HOP-92; > 100 µM (inactive) in the assay with M14; > 100 µM (inactive) in the assay with NCI-H460; > 100 µM (inactive) in the assay with SR; > 100 µM (inactive) in the assay on HCC 2998; 63.4 µM (inactive) in the assay on DMS-114. The GI50 was > 100 µM (inactive) in the assay with DMS-273; 96.2 µM (inactive) in the assay with CCRF-CEM; > 100 µM (inactive) in the assay on CAKI-1; > 100 µM (inactive) with ACHN; > 100 µM (inactive) in the assay on DLD-1; > 100 µM (inactive) in the assay on A498. The GI50 in the assay on TK-10, in the assay with RXF 393 and in the assay on M19-MEL was > 100 µM (inactive) in each case.

For the compound `O=c1nc(NC(c2ccccc2)(c2ccccc2)c2ccccc2)ccn1CCCl`, the GI50 is 14.2 µM (inactive) with HOP-92; 19.3 µM (inactive) in the assay with NCI-H460; 20.3 µM (inactive) with SR; 14.9 µM (inactive) with HCC 2998; 14.5 µM (inactive) in the assay on DMS-114; 25.5 µM (inactive) in the assay on HOP-18. Also, the GI50 was 17.1 µM (inactive) in the assay with RPMI-8226; 27.8 µM (inactive) in the assay with ACHN; 35.3 µM (inactive) in the assay with DLD-1; 64.7 µM (inactive) in the assay on A498; 27.7 µM (inactive) in the assay with TK-10; 16.1 µM (inactive) in the assay on RXF 393. Besides, in the assay on M19-MEL, the GI50 was 18.8 µM (inactive).

As to `CC(=O)NNc1nc(C)c(C(=O)NNC(=O)C(=O)Nc2ccc([N+](=O)[O-])cc2C#N)s1`, the GI50 with M14 is > 100 µM (inactive); with NCI-H460, > 100 µM (inactive); with SR it was 67.1 µM (inactive); in the assay on HCC 2998 it was > 100 µM (inactive); in the assay on DMS-114 it was > 100 µM (inactive); in the assay with DMS-273, > 100 µM (inactive). The GI50 in the assay on CCRF-CEM was 32.7 µM (inactive); in the assay with RPMI-8226, > 100 µM (inactive); in the assay with ACHN, 83.6 µM (inactive); with A498, 58.1 µM (inactive); with TK-10, > 100 µM (inactive); with M19-MEL, > 100 µM (inactive).

Turning to `CC1NC(=O)C(C)C(c2ccccc2)N(N=O)C1c1ccccc1` (centres undefined), the GI50 was 39.7 µM (inactive) in the assay on HOP-92; > 69.8 µM (inactive) with NCI/ADR-RES; > 61.7 µM (inactive) in the assay with NCI-H460; 52.4 µM (inactive) with HCC 2998; 48.5 µM (inactive) in the assay with DMS-114; 63 µM (inactive) in the assay with DMS-273. In addition, the GI50 was 55.7 µM (inactive) with CCRF-CEM; 96.8 µM (inactive) with HOP-18; > 100 µM (inactive) in the assay on CAKI-1; 33.6 µM (inactive) in the assay with RPMI-8226; 72.1 µM (inactive) with DLD-1; 12.8 µM (inactive) with A498. In the assay with RXF 393, the GI50 is 60.7 µM (inactive).

For `CC(=O)Nc1ccc(C(=O)NN2C(=O)C(Cl)/C2=C/c2ccco2)cc1` (centres undefined), the GI50 in the assay with HOP-92, in the assay on NCI-H460, with SR, in the assay with HCC 2998, with CCRF-CEM and in the assay on HOP-18 was > 100 µM (inactive) in each case. Besides, the GI50 in the assay with RPMI-8226, in the assay on ACHN, with DLD-1, in the assay on TK-10 and in the assay on M19-MEL was > 100 µM (inactive) throughout.

For `COc1ccc(CCn2cncn2)cc1`, the GI50 in the assay on HOP-92, with M14, in the assay with NCI-H460, in the assay on SR, in the assay on HCC 2998 and with DMS-114 was > 100 µM (inactive) throughout. Further, the GI50 in the assay with DMS-273, in the assay on CCRF-CEM, in the assay with ACHN, with DLD-1, in the assay with TK-10 and in the assay on M19-MEL was > 100 µM (inactive) in each case.

With `CC1CC/C(=C\c2ccc(N(C)C)cc2)C2=C1C(c1ccc(N(C)C)cc1)NC(=S)N2` (centres undefined), the GI50 in the assay on NCI/ADR-RES, with M14, in the assay with CCRF-CEM, with T47D, in the assay on CAKI-1 and with RPMI-8226 was > 100 µM (inactive) each time. Further, the GI50 in the assay with ACHN, in the assay with A498, in the assay with TK-10, in the assay with MDA-MB-231 and with RXF 393 was > 100 µM (inactive) each time.

In the case of `O=C(/C=C/c1ccc(OCc2ccccc2)cc1)NCc1ccc(C(=O)NCc2ccccc2)cc1`, the GI50 in the assay with HOP-92, in the assay on NCI/ADR-RES, with M14, with NCI-H460, with SR and in the assay on HCC 2998 was > 100 µM (inactive) each time. The GI50 with CCRF-CEM, with T47D, in the assay with CAKI-1, in the assay on RPMI-8226, in the assay on ACHN and in the assay with A498 was > 100 µM (inactive) each time. Further, the figures for the GI50 in the assay on TK-10, in the assay on MDA-MB-231 and in the assay with RXF 393 were > 100 µM (inactive), > 100 µM (inactive) and 0.687 µM (active), respectively.

With `CN(C)C(=O)NCCN1CCCCCc2ccccc21`, the GI50 in the assay on HOP-92 was 32.4 µM (inactive); in the assay on NCI/ADR-RES, > 100 µM (inactive); in the assay with M14 it was 46.3 µM (inactive); in the assay on NCI-H460, > 100 µM (inactive); in the assay on SR, > 100 µM (inactive); in the assay with HCC 2998, > 100 µM (inactive). The GI50 in the assay on CCRF-CEM is 71.8 µM (inactive); in the assay with T47D, > 100 µM (inactive); in the assay on CAKI-1, > 100 µM (inactive); in the assay on RPMI-8226 it was > 100 µM (inactive); with ACHN it was > 100 µM (inactive); in the assay on A498, > 100 µM (inactive). Besides, the GI50 with TK-10 is > 100 µM (inactive); in the assay with MDA-MB-231 it was 57.1 µM (inactive); in the assay on RXF 393, > 100 µM (inactive).

In the case of `CCN(CC)c1cccc2c1/C(=N/O)CCCC2`, the GI50 was 74.5 µM (inactive) with NCI-H460; > 100 µM (inactive) with SR; 52.8 µM (inactive) in the assay with DMS-114; > 100 µM (inactive) in the assay on DMS-273; > 100 µM (inactive) with CCRF-CEM; > 100 µM (inactive) with HOP-18. Also, the GI50 with RPMI-8226 is 56.2 µM (inactive); in the assay on ACHN, > 100 µM (inactive); with TK-10, > 100 µM (inactive); with RXF 393 it was 90.2 µM (inactive); in the assay with M19-MEL, > 100 µM (inactive).

On to `CC[C@H](O)[C@H](C)C=C1SCCCS1`, for which the GI50 with HOP-92, in the assay with NCI/ADR-RES, with M14, with SR, in the assay on HCC 2998 and in the assay on CCRF-CEM was > 100 µM (inactive) throughout. Moreover, the GI50 with CAKI-1, in the assay on RPMI-8226, in the assay with ACHN, in the assay with A498, in the assay with TK-10 and in the assay with MDA-MB-231 was > 100 µM (inactive) each time. In the assay on RXF 393, the GI50 was > 100 µM (inactive).

For the compound `CCOC(=O)c1cc(Br)c(-c2cc(C)no2)[nH]1`, the GI50 in the assay on HOP-92 was 29.9 µM (inactive); in the assay on NCI/ADR-RES it was 30.4 µM (inactive); with M14, 39.7 µM (inactive); in the assay on NCI-H460, 21.1 µM (inactive); in the assay on T47D, 28.1 µM (inactive); in the assay on RPMI-8226 it was 13.9 µM (inactive). Besides, the GI50 was 28.8 µM (inactive) in the assay on ACHN; 20.2 µM (inactive) in the assay with A498; 46.5 µM (inactive) in the assay on TK-10; 29.2 µM (inactive) in the assay on MDA-MB-231; 31 µM (inactive) in the assay on RXF 393.

These data come from ChEMBL document CHEMBL1201862, “PubChem BioAssay data set” (2004).
